Reference: ChEMBL document CHEMBL4715900, “Novel Substituted Monocyclic Heteroaryl Compounds for Treating Huntington's Disease” (ACS Med Chem Lett, 2021)

molecular target: Huntingtin (Homo sapiens, UniProt P42858); assay: Inhibition of Huntingtin protein (unknown origin) incubated for overnight in presence of MW1/MAB2166 monoclonal antibody by ELISA-based MSD electrochemiluminescence assay
Sequence (P42858 whole entry): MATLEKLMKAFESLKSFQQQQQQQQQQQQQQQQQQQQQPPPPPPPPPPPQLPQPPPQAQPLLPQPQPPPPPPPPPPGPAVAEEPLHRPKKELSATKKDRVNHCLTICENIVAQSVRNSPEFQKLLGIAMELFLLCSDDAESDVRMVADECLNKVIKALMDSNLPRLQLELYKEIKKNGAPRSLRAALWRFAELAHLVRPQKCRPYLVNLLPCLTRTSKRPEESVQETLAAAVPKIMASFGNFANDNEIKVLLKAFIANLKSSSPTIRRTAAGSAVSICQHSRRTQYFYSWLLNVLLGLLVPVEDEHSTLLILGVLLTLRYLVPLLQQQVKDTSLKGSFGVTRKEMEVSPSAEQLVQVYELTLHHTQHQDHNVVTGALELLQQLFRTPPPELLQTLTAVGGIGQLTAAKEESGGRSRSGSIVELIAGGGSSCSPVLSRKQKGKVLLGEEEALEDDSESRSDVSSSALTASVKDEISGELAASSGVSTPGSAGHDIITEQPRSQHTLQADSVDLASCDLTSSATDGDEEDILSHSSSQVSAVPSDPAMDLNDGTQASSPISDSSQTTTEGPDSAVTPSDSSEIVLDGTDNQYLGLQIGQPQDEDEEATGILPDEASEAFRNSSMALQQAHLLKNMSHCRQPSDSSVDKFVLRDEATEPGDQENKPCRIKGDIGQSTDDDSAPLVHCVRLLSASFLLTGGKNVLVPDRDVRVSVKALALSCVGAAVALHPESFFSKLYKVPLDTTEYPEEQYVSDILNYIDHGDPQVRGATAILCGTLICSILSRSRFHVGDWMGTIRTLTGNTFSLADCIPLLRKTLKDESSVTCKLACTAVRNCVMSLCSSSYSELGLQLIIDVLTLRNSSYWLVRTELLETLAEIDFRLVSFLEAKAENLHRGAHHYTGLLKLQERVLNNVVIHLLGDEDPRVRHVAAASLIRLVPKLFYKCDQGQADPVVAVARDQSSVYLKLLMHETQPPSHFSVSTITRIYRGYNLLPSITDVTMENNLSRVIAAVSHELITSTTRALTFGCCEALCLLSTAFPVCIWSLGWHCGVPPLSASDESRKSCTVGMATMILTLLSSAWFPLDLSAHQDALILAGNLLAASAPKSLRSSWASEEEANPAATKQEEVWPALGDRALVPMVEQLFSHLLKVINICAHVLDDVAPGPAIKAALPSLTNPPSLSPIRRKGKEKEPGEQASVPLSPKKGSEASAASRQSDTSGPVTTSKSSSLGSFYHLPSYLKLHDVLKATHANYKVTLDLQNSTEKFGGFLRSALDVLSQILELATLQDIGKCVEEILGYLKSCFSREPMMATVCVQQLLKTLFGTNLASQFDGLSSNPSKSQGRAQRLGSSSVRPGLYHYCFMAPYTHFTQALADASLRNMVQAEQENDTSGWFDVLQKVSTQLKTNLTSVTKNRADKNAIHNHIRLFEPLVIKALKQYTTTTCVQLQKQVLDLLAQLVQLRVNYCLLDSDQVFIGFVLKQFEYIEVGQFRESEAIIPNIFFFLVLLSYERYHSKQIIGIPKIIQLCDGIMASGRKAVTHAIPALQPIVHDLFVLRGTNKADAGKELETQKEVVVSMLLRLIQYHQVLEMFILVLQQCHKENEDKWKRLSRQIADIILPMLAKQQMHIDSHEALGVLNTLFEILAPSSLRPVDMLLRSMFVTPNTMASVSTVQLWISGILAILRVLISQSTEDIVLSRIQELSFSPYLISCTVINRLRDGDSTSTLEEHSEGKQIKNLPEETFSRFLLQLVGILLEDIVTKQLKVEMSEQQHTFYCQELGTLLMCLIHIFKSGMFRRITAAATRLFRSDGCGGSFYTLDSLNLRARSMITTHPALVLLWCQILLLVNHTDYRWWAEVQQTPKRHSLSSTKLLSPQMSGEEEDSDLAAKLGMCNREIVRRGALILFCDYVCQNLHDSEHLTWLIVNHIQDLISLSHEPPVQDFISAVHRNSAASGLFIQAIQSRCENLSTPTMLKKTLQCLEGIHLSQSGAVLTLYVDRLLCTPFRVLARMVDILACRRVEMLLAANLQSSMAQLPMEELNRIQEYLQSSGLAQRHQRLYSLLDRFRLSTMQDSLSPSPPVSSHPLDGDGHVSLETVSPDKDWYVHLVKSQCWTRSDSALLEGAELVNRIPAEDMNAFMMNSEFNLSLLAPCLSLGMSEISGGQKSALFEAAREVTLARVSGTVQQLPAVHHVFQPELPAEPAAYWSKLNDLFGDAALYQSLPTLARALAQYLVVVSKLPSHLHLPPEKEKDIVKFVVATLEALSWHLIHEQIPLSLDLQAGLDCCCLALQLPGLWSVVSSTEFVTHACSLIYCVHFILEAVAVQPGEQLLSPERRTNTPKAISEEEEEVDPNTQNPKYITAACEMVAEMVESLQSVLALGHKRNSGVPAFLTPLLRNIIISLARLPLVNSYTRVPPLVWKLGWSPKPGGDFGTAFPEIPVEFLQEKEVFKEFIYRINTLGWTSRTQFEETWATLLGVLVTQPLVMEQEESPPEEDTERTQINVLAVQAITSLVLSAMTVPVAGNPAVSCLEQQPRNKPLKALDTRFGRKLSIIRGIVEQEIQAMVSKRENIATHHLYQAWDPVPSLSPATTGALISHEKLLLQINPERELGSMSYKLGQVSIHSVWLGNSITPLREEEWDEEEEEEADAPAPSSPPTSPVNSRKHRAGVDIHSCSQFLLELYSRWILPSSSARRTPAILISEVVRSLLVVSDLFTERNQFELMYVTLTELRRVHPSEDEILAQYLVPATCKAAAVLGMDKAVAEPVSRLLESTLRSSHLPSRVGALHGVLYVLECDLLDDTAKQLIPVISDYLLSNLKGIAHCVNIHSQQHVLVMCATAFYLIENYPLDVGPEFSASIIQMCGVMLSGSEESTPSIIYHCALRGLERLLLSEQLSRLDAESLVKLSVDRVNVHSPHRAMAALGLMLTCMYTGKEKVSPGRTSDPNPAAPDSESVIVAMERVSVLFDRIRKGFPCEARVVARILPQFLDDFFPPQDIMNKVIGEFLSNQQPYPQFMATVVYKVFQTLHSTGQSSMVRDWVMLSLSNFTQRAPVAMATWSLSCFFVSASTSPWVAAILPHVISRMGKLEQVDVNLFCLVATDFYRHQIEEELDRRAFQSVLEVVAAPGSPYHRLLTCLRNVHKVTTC

| Structure (SMILES) | IC50 |
| --- | --- |
| CC1(C)CC(Nc2cnc(-c3ccc(-c4cn[nH]c4)cc3O)nn2)C(F)C(C)(C)N1 (stereo unspecified) | ≤ 100 nM |
| CC(C)(C)NC1CCN(c2ncc(-c3ccc(-c4c[nH]nc4C#N)cc3O)nn2)C1 (stereo unspecified) | ≤ 100 nM |
| CN(c1cnc(-c2ccc(-n3nccn3)cc2O)nn1)C1CC(C)(C)NC(C)(C)C1 | ≤ 100 nM |
| CN(c1ncc(-c2ccc(-c3ncco3)cc2O)nn1)C1CC(C)(C)NC(C)(C)C1 | ≤ 100 nM |
| Cn1cc(-c2ccc(-c3cnc(NC4CC(C)(C)NC(C)(C)C4)nn3)c(O)c2)cn1 | ≤ 100 nM |
| CN(c1cnc(-c2ccc(-c3cn[nH]c3F)cc2O)nn1)C1CC(C)(C)NC(C)(C)C1 | ≤ 100 nM |
